Reference: patent US20060194262A1, “P27 ubiquitination assay and methods of use” (priority 2004, published 2006)
Like-named read-outs stand apart in the source and are kept apart here. Blank lines part the entries; values can stand above or below the molecule they belong to.

Legend:
[1] = tested on: T1, p27 ubiquitination (E1, E2, E3 SCF^Skp2, Cks1); test: p27 ubiquitination assay, plate capture format (DMSO tolerance); format: biochemical, Human
T1 construct: His; Strep tag (cleaved yes); GST; made in house; host or cells: Sf9 (His-E1; p27/Cdk2/cyclin E); E. coli (His-UbcH3, Cks1); baculovirus-infected insect cells (SCF-Skp2)
Text: This assay measures the ubiquitination of cell cycle inhibitor p27 in a high-throughput-capable in vitro reconstituted system that mimics the ubiquitination of p27 in vivo. Ubiquitinated p27 is captured using an anti-p27 antibody-coated plate and detected by Europium (Eu)-labeled streptavidin that binds biotinylated ubiquitin. The assay as described below incorporates the addition of a test compound to the ubiquitination reaction.
Assay mix A (see below) contained: 3× concentration ubiquitin buffer (120 mM Tris·HCl pH 7.5, 15 mM MgCl2), 3 mM dithiothreitol, 15 ng/μL E1, 450 ng/μLE2, 15 ng/μL E3, and 12 ng/μL pre-phosphorylated p27.
Starting solution (see below) contained 0.75 mg/mL biotinylated ubiquitin and 0.75 ng/μL Cks1 in assay dilution buffer (30 mM Tris·HCl pH7.5, 1 mM DTT, 19.5% glycerol). Starting solution for negative control contains 0.75 mg/mL biotinylated ubiquitin in assay dilution buffer (30 mM Tris·HCl pH7.5, 1 mM DTT, 19.5% glycerol).
The capture plates were coated as follows. […]
The ubiquitination reaction was run as follows: 5 μL of a test compound in 6% dimethylsulfoxide (DMSO) was added to each well of a V-bottom plate. […] 25 μL enhancement solution was added per well, and the plates were read to determine the amount of time-resolved fluorescence emission at 615 nm for Europium chelate. […]

[2] = tested on: p27 ubiquitination (E1, E2, E3 SCF^Skp2, Cks1); settings: reaction includes 5 mM MgCl2
Text: A homogenous, time-resolved fluorescence resonance energy transfer (HTR-FRET) assay was developed for high throughput screening of compounds that block p27 ubiquitination in vitro. In this assay, p27 is modified with a mixture of ubiquitin (Ub) and biotinylated ubiquitin (Bio-Ub) in the presence of E1, E2, E3 and Cks1 (FIG. 11). A rabbit anti-phospho-p27 antibody and Lance Eu labeled Protein G (Eu-PRG) were used as a donor and Cy5-labeled streptavidin (Cy5-SA or Dylite-SA) is used as an acceptor. Ubiquitinated p27 is detected by FRET signal generated between Eu and Cy5.
In this format, Bio-Ub is used as a tracer to label ubiquitinated p27. Lance Eu-labeled Protein G (Eu-PRG) coupled to anti-phospho-p27 is used as the FRET donor, and SA-Cy5 is used as the FRET acceptor. The FRET signal is measured as the ratio of fluorescence emission of Cy5 at 665 nm over that of Eu at 620 nm after excitation of Eu at 340 nm.
Next, stopping conditions for the p27 ubiquitination were determined.
Assay Procedures: • 1) Prepare Starting solutions and incubate at room temperature for 20˜30 min Start+Cks1: 12 μM Ub, 3 μM Bio-Ub, and 1.875 ng/μl (187.5 nM) Cks1 in assay dilution buffer. Start−Cks1: 12 μM Ub and 3 μM Bio-Ub in assay dilution buffer. • 2) Prepare Assay mix A as indicated in Table 3 • 3) Set up reaction: In an assay plate, add 5 μl/well of Assay mix A, compound in 6% DMSO and 0.03% Brij35 (30 μg/ml; final concentration at 10 μg/ml), and Starting solutions. The total assay volume is 15 μl. Incubate at room temperature (˜23° C.-25° C.) for 1 hour. • 4) Stop the reaction with the addition of 15 μl/well of Stopping solution (40 mM EDTA, 0.1% Tween 20, 250 nM Cy5, 2 nM Eu-PRG, and 8 nM anti-phospho-p27 in PBS)

E1 = target: T2, E1 (Homo sapiens, UniProt P22314); test: apparent Km of ubiquitin for E1; format: biochemical; settings: read-out: apparent Km of Ub for E1
T2 sequence (P22314 1-1058): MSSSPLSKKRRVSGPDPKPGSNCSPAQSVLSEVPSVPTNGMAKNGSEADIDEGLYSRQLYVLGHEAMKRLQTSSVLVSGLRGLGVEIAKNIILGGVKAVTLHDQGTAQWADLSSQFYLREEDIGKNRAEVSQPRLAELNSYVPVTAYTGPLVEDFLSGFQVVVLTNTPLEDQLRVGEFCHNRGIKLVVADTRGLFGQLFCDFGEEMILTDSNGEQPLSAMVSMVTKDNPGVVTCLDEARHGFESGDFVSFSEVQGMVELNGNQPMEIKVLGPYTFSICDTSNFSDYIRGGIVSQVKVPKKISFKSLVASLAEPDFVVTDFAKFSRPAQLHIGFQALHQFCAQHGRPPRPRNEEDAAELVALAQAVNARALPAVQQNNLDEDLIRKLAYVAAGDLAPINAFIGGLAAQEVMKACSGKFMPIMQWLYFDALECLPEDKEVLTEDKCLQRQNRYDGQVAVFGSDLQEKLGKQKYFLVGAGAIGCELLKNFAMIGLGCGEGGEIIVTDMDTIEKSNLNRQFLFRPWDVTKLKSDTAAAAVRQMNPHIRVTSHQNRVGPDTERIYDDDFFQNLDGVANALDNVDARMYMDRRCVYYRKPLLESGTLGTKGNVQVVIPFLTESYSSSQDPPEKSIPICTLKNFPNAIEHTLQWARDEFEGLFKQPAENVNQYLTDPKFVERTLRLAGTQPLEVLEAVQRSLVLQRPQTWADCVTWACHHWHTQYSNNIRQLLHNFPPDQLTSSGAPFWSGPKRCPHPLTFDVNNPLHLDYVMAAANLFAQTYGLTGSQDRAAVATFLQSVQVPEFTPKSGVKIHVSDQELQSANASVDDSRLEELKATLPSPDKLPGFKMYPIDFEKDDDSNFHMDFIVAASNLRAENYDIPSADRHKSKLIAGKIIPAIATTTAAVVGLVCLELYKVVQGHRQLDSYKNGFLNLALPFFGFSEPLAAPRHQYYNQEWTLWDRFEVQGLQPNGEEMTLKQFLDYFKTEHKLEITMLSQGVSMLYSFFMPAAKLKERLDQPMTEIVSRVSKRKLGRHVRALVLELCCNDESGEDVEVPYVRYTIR
Protocol: In an HTR-FRET assay, the background FRET increases as the concentrations of Eu and Cy5 increase. In general, to achieve a low background signal, Eu concentrations should be in the low nM range while Cy5 concentrations can be up to 100-200 nM. To determine the optimal concentration of Bio-Ub used in the p27 Ub assay, 80 nM of p27 was ubiquitinated with 0-4 μM of Bio-Ub and diluted 1:4 with a detection mixture containing a final concentration of 5 nM Eu-PRG, 10 nM anti-p27, and 25-125 nM SA-Cy5. 1 uM of Bio-Ub with 125 nM of Cy5-SA gave the best signal-to-background (S/B) ratio (FIG. 12). […] Since the apparent Km of Ub for E1 is about 2 μM, 4 μM of unlabeled ubiquitin was used in the reaction (2×apparent Km). Ubiquitination of p27 in the presence of 4 μM Ub and 1 μM Bio-Ub was very similar to that of p27 in the presence of saturating concentrations of Bio-Ub (28 μM) (FIG. 13).

Molecule: C[S+](C)[O-] [DMSO, dimethylsulfoxide]
p27 ubiquitination activity remained ([1]; 2% DMSO, titration between 0 and 10% DMSO): approximately 60% | p27 ubiquitination ([1]; above 15% (v/v) of DMSO, initial titration): nearly completely lost

effect on p27 ubiquitination ([2]; 5 mM EDTA alone): no effect | p27 ubiquitination ([2]; 10 mM EDTA): only partially inhibited | Ubiquitination of p27 ([2]; 20 mM EDTA, data not shown): completely inhibited
Molecule: O=C(O)CN(CCN(CC(=O)O)CC(=O)O)CC(=O)O [EDTA]

Molecule: ubiquitin
Km (E1): ~2 µM
